In patent US12152016B2, “Aryl hydrocarbon receptor modulators and uses thereof” (Beth Israel Deaconess Medical Center, Inc., priority 2018, dated 2024):

Experiments:
[1] = tested on: AHR-dependent transcription of the CYP1A1 gene; test: CYP1A1 induction in mouse macrophages; assay type: cell-based
Procedure: (§1) Mouse macrophages were also used to test AHR-dependent transcription of the CYP1A1 gene in vivo. Finally, the activity of exemplary compounds of Formula (I) described herein was tested in the human […] cell line U937. The U937 cell line is derived from a patient with diffuse histiocytic lymphoma. Tables 2-4 summarize structure-activity relationship data collected for exemplary, non-limiting compounds of Formula (I) described herein.

[2] = molecular target: T1, aryl hydrocarbon receptor (AHR) (Homo sapiens, UniProt P35869); test: XRE-driven luciferase reporter assay, human HepG2; settings: for XRE luciferase Emax (fold): fold over vehicle; for XRE luciferase Emax (footnote c): Emax defined as fold increase at highest concentration tested (10 μM); for fold less active / fold decrease in activity: AHR activity relative to compound #10
T1 sequence (P35869 11-848): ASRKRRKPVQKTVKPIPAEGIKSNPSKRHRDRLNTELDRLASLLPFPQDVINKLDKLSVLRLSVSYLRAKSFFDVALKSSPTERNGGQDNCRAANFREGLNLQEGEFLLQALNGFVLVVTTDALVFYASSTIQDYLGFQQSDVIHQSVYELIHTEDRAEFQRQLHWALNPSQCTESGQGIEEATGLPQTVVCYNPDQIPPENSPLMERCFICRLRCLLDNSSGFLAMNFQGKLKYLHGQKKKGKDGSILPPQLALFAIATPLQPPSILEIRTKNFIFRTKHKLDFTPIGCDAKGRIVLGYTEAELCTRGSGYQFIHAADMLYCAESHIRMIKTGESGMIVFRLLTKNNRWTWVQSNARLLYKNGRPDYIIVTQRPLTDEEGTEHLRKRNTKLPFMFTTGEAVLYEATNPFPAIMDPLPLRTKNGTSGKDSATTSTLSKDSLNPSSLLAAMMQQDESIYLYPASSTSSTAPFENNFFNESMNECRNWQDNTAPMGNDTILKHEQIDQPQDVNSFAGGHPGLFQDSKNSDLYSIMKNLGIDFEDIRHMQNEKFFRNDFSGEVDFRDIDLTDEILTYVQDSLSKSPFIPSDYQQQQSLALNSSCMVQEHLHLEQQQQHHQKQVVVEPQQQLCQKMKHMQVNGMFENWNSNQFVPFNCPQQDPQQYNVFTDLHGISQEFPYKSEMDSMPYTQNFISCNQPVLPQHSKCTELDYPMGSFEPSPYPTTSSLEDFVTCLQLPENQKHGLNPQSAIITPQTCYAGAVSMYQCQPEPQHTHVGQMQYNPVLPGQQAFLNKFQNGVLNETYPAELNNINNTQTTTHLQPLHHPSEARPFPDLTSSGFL
Procedure: The Human HepG2 cell line is a human liver cancer cell line, and provide a relevant in vitro AHR activity model. These Hep2G cells have been modified to stably express an AHR-responsive (XRE) firefly luciferase reporter gene to give Hep2G-XRE cells. The expression of luciferase should primarily reflect AHR-dependent transcription controlled by XRE.
Transfected cells were treated with AhR agonist (10^−5-10^−12) for 4.5 h in full medium. Cells were lysed and luciferase was activated using the Luciferase Assay System (Promega). Luminescence signals were measured with a FluroStar Omega microplate reader. Luminescence signals of compound treated groups were normalized to vehicle (DMSO) treated control and plotted as concentration dependent fold changes.

[3] = tested on: AHR-dependent transcription of the CYP1A1 gene; test: CYP1A1 induction in human U937 cells; assay type: cell-based; settings: Human U937, 1 μM
Procedure: as §1

[4] = XRE luciferase EC50, Human HepG2, least square curve fitting, >10,000 = does not reach 50% of Emax of ITE at 10 μM (highest concentration tested)
[5] = XRE luciferase EC50 (footnote a), Human HepG2, EC50 defined as concentration induced 50% of Emax of ITE

SMILES | CYP1A1 induction (% of ITE ± SEM) ([1]; 50 nM) | CYP1A1 induction (% of ITE ± SEM) ([1]; 5 μM) | XRE luciferase Emax (fold) ([2]; Human HepG2) | EC50 [2, 4] [nM] | other results
COC(=O)c1cccc(C(=O)c2cn(C)c3ccccc23)n1 [Compound 13] | 29 ± 10 % of ITE | 50 ± 20 % of ITE | 55 | 190 | –
COC(=O)c1cccc(C(=O)c2c[nH]c3ccccc23)c1 [Compound 202, methyl 3-(1H-indole-3-carbonyl)benzoate] | – | – | – | – | CYP1A1 induction (% of ITE ± SEM) [3]: 3 ± 1 % of ITE
COC(=O)c1cccc(C(=O)c2c[nH]c3ccc(Br)cc23)n1 [Compound 20] | 138 ± 8 % of ITE | 144 ± 20 % of ITE | 55 | 6.2 | –
COC(=O)c1cccc(C(=O)c2c[nH]c3c2ccc2ccccc23)n1 [Compound 22] | 57 ± 5 % of ITE | 105 ± 3 % of ITE | – | – | XRE luciferase Emax (footnote c) ([2]; Human HepG2): (121)^c fold; EC50 [2, 5]: 14 nM
O=C(c1cccc(Cl)n1)c1c[nH]c2ccccc12 [Compound 6] | 86 ± 47 % of ITE | – | – | – | XRE luciferase Emax (footnote c) ([2]; Human HepG2): (109)^c fold; EC50 [2, 5]: 29 nM
O=C(O)c1cccc(C(=O)c2c[nH]c3ccccc23)n1 [Compound 145, 6-(1H-indole-3-carbonyl)pyridine-2-carboxylic acid] | – | – | – | – | IC50 [2]: 640 nM
COC(=O)c1cccc(C(=O)c2c[nH]c3cccc(Cl)c23)n1 [Compound 14] | 141 ± 83 % of ITE | – | – | > 10000 | XRE luciferase Emax (footnote c) ([2]; Human HepG2): (19)^c fold
CC(C)OC(=O)c1cccc(C(=O)c2c[nH]c3ccccc23)n1 [Compound 1] | 22 ± 11 % of ITE | 128 ± 11 % of ITE | 37 | 370 | –
O=C(OC1CCCCC1)c1cccc(C(=O)c2c[nH]c3ccccc23)n1 [Compound 2] | 19 ± 4 % of ITE | 95 ± 7 % of ITE | 55 | 12000 | –
COC(=O)c1ccc(C(=O)c2c[nH]c3ccccc23)nc1 [Compound 11, methyl 6-(1H-indole-3-carbonyl)pyridine-3-carboxylate] | 2 ± 1 % of ITE | 26 ± 10 % of ITE | – | > 10000 | XRE luciferase Emax (footnote c) ([2]; Human HepG2): (2.3)^c fold
O=C(c1ccccc1)c1c[nH]c2ccccc12 [Compound 7] | – | 0.6 ± 0.2 % of ITE | – | – | –
COC(=O)c1cccc(C(=O)c2c[nH]c3c(Cl)cccc23)n1 [Compound 17] | 49 ± 19 % of ITE | – | 68 | 1.3 | –
COC(=O)c1ccc(C(=O)c2c[nH]c3ccccc23)cn1 [Compound 23] | – | 65 ± 9 % of ITE | 74 | 4700 | –
CN(C)C(=O)c1cccc(C(=O)c2c[nH]c3ccccc23)n1 [Compound 4] | – | 2.5 ± 1.4 % of ITE | 23 | > 10000 | –
COC(=O)c1cccc(C(=O)c2c[nH]c3ncccc23)n1 [Compound 18] | 11 ± 4 % of ITE | – | 42 | 18 | –
COC(=O)c1cccc(C(=O)c2c[nH]c3c4c(ccc23)CCC4)n1 [Compound 21] | 129 ± 8 % of ITE | 118 ± 5 % of ITE | 53 | 27 | –
COC(=O)c1cccc(C(=O)c2c[nH]c3ccc(OC)cc23)n1 [Compound 19] | 121 ± 12 % of ITE | 120 ± 13 % of ITE | 131 | 1800 | –
COC(=O)c1cccc(C(=O)c2c[nH]c3ccccc23)c1 [Compound 8] | 3 ± 1 % of ITE | – | – | > 10000 | XRE luciferase Emax (footnote c) ([2]; Human HepG2): (2.1)^c fold
COC(=O)c1cccc(C(=O)c2c[nH]c3ccc(Cl)cc23)n1 [Compound 15] | 150 ± 36 % of ITE | 89 ± 44 % of ITE | 62 | 7.6 | –
CCOC(=O)c1cccc(C(=O)c2c[nH]c3ccccc23)n1 [Compound 147, ethyl 6-(1H-indole-3-carbonyl)pyridine-2-carboxylate] | 8 ± 2 % of ITE | 52 ± 28 % of ITE | 40 | 840 | fold less active / fold decrease in activity [2]: > 250 fold
CC(=O)Oc1cccc(C(=O)c2c[nH]c3ccccc23)c1 [Compound 12] | 5 ± 3 % of ITE | – | – | – | –
O=C(O)c1cccc(C(=O)c2c[nH]c3ccccc23)n1 [Compound 3] | 27 ± 17 % of ITE | 97 ± 16 % of ITE | 47 | 640 | –
COC(=O)c1cccc(C(=O)c2c[nH]c3cc(Cl)ccc23)n1 [Compound 16] | 169 ± 59 % of ITE | 122 ± 48 % of ITE | – | – | XRE luciferase Emax (footnote c) ([2]; Human HepG2): (141)^c fold; EC50 [2, 5]: 1.6 nM

Continued, in another order:

CYP1A1 induction (% of ITE ± SEM) ([1]; 50 nM) | CYP1A1 induction (% of ITE ± SEM) ([1]; 5 μM) | XRE luciferase Emax (fold) ([2]; Human HepG2) | EC50 [2, 4] [nM] | SMILES | other results
– | 44 ± 2 % of ITE | 65 | 2600 | COc1cc(C(=O)c2c[nH]c3ccccc23)ccn1 [Compound 29] | –
10 ± 7 % of ITE | – | – | – | COC(=O)c1ccccc1C(=O)c1c[nH]c2ccccc12 [Compound 26] | –
20 ± 16 % of ITE | – | – | – | COC(=O)c1ccc(C(=O)c2c[nH]c3ccccc23)cc1 [Compound 25] | –
– | 6 ± 2 % of ITE | – | > 10000 | COC(=O)c1cccc(C(=O)c2c(C)[nH]c3ccccc23)n1 [Compound 144, methyl 6-(2-methyl-1H-indole-3-carbonyl)pyridine-2-carboxylate] | CYP1A1 induction (% of ITE ± SEM) [3]: 29 ± 14 % of ITE; XRE luciferase Emax (footnote c) ([2]; Human HepG2): (22)^c fold
– | 46 ± 4 % of ITE | 59 | 62 | O=C(c1cccc(N2CCOCC2)n1)c1c[nH]c2ccccc12 [Compound 110, 1H-indol-3-yl-(6-morpholino-2-pyridyl)methanone] | fold less active / fold decrease in activity [2]: ~20 fold
6 ± 1 % of ITE | – | – | – | COc1ccccc1C(=O)c1c[nH]c2ccccc12 [Compound 27] | –
99 ± 18 % of ITE | 59 ± 22 % of ITE | – | – | COC(=O)c1ccc(C(=O)c2c[nH]c3ccccc23)s1 [Compound 24] | CYP1A1 induction (% of ITE ± SEM) [3]: 244 ± 28 % of ITE; CYP1A1 induction (% of ITE ± SEM) ([1]; 5 nM): 60 ± 13 % of ITE
– | 15 ± 6 % of ITE | 20 | > 10000 | O=C(c1ccccn1)c1c[nH]c2ccccc12 [Compound 124, 1H-indol-3-yl(2-pyridyl)methanone] | –
19 ± 8 % of ITE | – | – | – | COc1ccc(C(=O)c2c[nH]c3ccccc23)cc1 [Compound 28] | –
– | 41 ± 3 % of ITE | – | – | COc1cnc(C(=O)c2c[nH]c3ccccc23)cn1 [Compound 30] | XRE luciferase Emax (footnote c) ([2]; Human HepG2): (30)^c fold; EC50 [2, 5]: 8.1 nM
